Our source for the Log SP values is ChEMBL document CHEMBL1121833, “Structure--sweetness relationship of L-aspartyl dipeptide analogues. A receptor site topology” (J Med Chem, 1981).

A short description of the experiment: Sweet potency as logarithm of sweet potency (log SP) relative to sucrose. It counts as functional.

As for `C=C(C)C(=O)OC[C@H](C)NC(=O)[C@H](N)CC(=O)O`, the Log SP was 1.99.

For `CCCCC[C@@H](NC(=O)[C@H](N)CC(=O)O)C(=O)OC`, the Log SP came to 1.9. In the case of `CCC(C)[C@@H](NC(=O)[C@@H](N)CC(=O)O)C(=O)OC(C)C` (some centres undefined) it was 0.53. In the case of `C[C@@H](COC(=O)C1CCC1)NC(=O)[C@H](N)CC(=O)O` it was 2.24; in that of `CCC(=O)OC[C@H](CC)NC(=O)[C@H](N)CC(=O)O`, 1.48; in that of `CC(C)OC(=O)[C@H](NC(=O)[C@@H](N)CC(=O)O)[C@@H](C)O`, 1.93.

On to `COC(=O)[C@@H](COC(=O)C(C)(C)C)NC(=O)[C@H](N)CC(=O)O`, for which the Log SP was found to be 1.81. `CCCCOC(=O)[C@H](NC(=O)[C@@H](N)CC(=O)O)[C@H](C)O` showed a Log SP of 1.23.

Take `N[C@H](CC(=O)O)C(=O)NCC(=O)OC1CCCCC1`: the Log SP came out at 1.02. Turning to `CCOCC[C@H](C)NC(=O)[C@H](N)CC(=O)O`, the Log SP was 1.14. In the case of `CC[C@H](NC(=O)[C@H](N)CC(=O)O)C(=O)OC(C)C`, the Log SP is 2.15. `COC(=O)C(NC(=O)[C@@H](N)CC(=O)O)C(=O)OCC1C2(C)CCC(C2)C1(C)C` (some centres undefined) yielded a Log SP of 4.79. The same measure for `CCC(CC)OC(=O)[C@@H](NC(=O)[C@H](N)CC(=O)O)C(=O)OC` (stereo in doubt; 198): 2.79; for `COC(=O)[C@@H](CC(=O)OC(C)(C)C)NC(=O)[C@H](N)CC(=O)O`: 1.3.

Compound `CCOC(=O)[C@H](NC(=O)[C@H](N)CC(=O)O)C(=O)OC1CCCC1` came in with a Log SP of 2.44.

On to `C[C@@H](COC(=O)C1CC1)NC(=O)[C@H](N)CC(=O)O`, for which the Log SP was found to be 2.18. Compound `N[C@H](CC(=O)O)C(=O)NCCc1ccc(F)cc1` came in with a Log SP of 0.57. Regarding `C=CC(=O)OC[C@H](C)NC(=O)[C@H](N)CC(=O)O`, the Log SP was determined as 1.85. Take `CCC(CC)OC(=O)[C@@H](NC(=O)[C@H](N)CC(=O)O)C(=O)OC` (stereo in doubt; 199): the Log SP was found to be 3.06.

The compound `COC(=O)C[C@@H](NC(=O)[C@H](N)CC(=O)O)C(=O)OC` showed a Log SP of 0.6. Compound `N[C@H](CC(=O)O)C(=O)NCCC(=O)OC1CCCCC1` came in with a Log SP of 1.22. `CCC(=O)OC[C@@H](NC(=O)[C@H](N)CC(=O)O)C(C)C` came in with a Log SP of 1.6. Regarding `CC(C)OC(=O)CCNC(=O)[C@H](N)CC(=O)O`, the Log SP came to 0.7. The same measure for `CC(C)OC(=O)C(C)CNC(=O)[C@H](N)CC(=O)O` (some centres undefined): 0.18; for `CC[C@@H](COC(C)=O)NC(=O)[C@H](N)CC(=O)O`: 1.16; for `CC(C)OC(=O)[C@H](C)NC(=O)[C@H](N)CC(=O)O`: 1.95. `CCC(=O)OC[C@H](C)NC(=O)[C@H](N)CC(=O)O` returned a Log SP of 1.86. `C[C@@H](O)[C@@H](NC(=O)[C@@H](N)CC(=O)O)C(=O)OC1CCCCC1`: the Log SP stood at 1.44. Consider `CCCOC(=O)[C@H](NC(=O)[C@@H](N)CC(=O)O)[C@@H](C)O`, for which the Log SP amounted to 2.08. The compound `CC[C@@H](Cc1ccccc1)NC(=O)[C@H](N)CC(=O)O` gave a Log SP of 0.89. `COC(=O)C(NC(=O)[C@@H](N)CC(=O)O)C(=O)OC1C(C)CCCC1C` (some centres undefined) registered a Log SP of 4.02.

For `CC(C)CCC(C)NC(=O)[C@H](N)CC(=O)O` (some centres undefined), the Log SP turned out to be 1.54. `CC(C)[C@@H](COC(=O)C1CCC1)NC(=O)[C@H](N)CC(=O)O` yielded a Log SP of 1.06.

The compound `CCCSC[C@@H](NC(=O)[C@H](N)CC(=O)O)C(=O)OC` gave a Log SP of 2.11. `CC(C)(Cc1ccccc1)NC(=O)[C@H](N)CC(=O)O` showed a Log SP of 1.19.

Consider `CC(C)CC(=O)OC[C@H](C)NC(=O)[C@H](N)CC(=O)O`, for which the Log SP worked out at 2.08. Take `CC[C@@H](COC(=O)C(C)C)NC(=O)[C@H](N)CC(=O)O`: the Log SP turned out to be 1.38.

On to `CCCC(=O)OC[C@H](C)NC(=O)[C@H](N)CC(=O)O`, for which the Log SP came out at 1.58. As to `CC(C)CC(=O)OCCNC(=O)[C@H](N)CC(=O)O`, the Log SP worked out at 1.36.
